According to PMC11546061, “Development and Evaluation of ABI-171, a New Fluoro-Catechin Derivative, for the Treatment of Idiopathic Pulmonary Fibrosis” (International Journal of Molecular Sciences, 2024):
Like-named read-outs stand apart in the source and are kept apart here.

What was measured:
[1] = design: method as in PMID 36986543; conditions: mouse, plasma, cited from earlier work
[2] = system: bleomycin-induced pulmonary fibrosis; experiment: Therapeutic bleomycin-induced IPF model (treatment from Day 7); assay type: in vivo, C57BL/6 mice
Description: In this study, drug treatment commenced 7 days post-induction of pulmonary fibrosis using BLM, employing a therapeutic model.
Pulmonary fibrosis was induced by a single intratracheal infusion of bleomycin at a dose of 3 U/kg body weight. Seven days post-bleomycin administration, when fibrosis was established, treatment with the test compounds commenced and continued daily for an additional 21 days.
Throughout the treatment period, body weight, survival rate, and clinical signs were monitored. At the study’s conclusion, mice were sacrificed, and their lungs were harvested for comprehensive histological and biochemical analyses. Lung tissues were processed for H&E and Masson’s trichrome staining to evaluate fibrosis and collagen deposition. Lung hydroxyproline content was measured to quantify collagen accumulation. Inflammatory cell infiltration in BALF was assessed by counting lymphocytes and neutrophils.

PIM2 = PIM2 (Homo sapiens, UniProt Q9P1W9); experiment: PIM2 kinase inhibition; assay type: biochemical
Description: Table 1 Best DYRK1A inhibitors. | column: PIM2 IC50

[3] = system: bleomycin-induced pulmonary fibrosis; experiment: Preventive bleomycin-induced IPF model (treatment from Day 0); assay type: in vivo, C57BL/6 mice; conditions: for body weight: Day 14 to 21 vs BLM model group, ABI compounds 60 mg/kg QD intranasal, pirfenidone 100 mg/kg oral thrice daily; for alveolitis and PF degrees (H&E and Masson staining): relative to bleomycin group; for hydroxyproline content in lung tissues: 21 days
Description: Consequently, we opted for intranasal delivery in our first IPF animal model, employing a validated BLM mouse model. […] The experiment considered the day of bleomycin injection as Day 0. […] The experiment was completed after 21 days.
In the preventive model, male C57BL/6 mice, aged 8–10 weeks, were used to simulate the early intervention scenario where treatment begins immediately following the induction of lung injury. […] On day 0, pulmonary fibrosis was induced by administering a single intratracheal infusion of bleomycin at a dose of 3 U/kg body weight, dissolved in 50 μL of sterile saline. Treatment with the test compounds commenced immediately after bleomycin administration and continued daily for 21 days. Body weight, survival rate, and clinical signs were monitored throughout the study.
At the end of the study period, the mice were sacrificed, and their lungs were harvested for histological and biochemical analyses. Lung tissues were fixed in 10% formalin and embedded in paraffin for histological examination using hematoxylin and eosin (H&E) staining to assess tissue morphology, and Masson’s trichrome staining to evaluate collagen deposition. Additionally, lung hydroxyproline content, a marker of collagen accumulation, was quantified using a colorimetric assay. Inflammatory cell infiltration was assessed by counting lymphocytes and neutrophils in bronchoalveolar lavage fluid (BALF).

[4] = Pharmacokinetics and lung-tissue distribution after single IV, IN or PO dose; assay type: in vivo, C57BL/6 mice
Protocol: Plasma concentrations were measured using LC-MS/MS, and PK parameters were calculated with WinNonlin. […] The formulation is based on the solubilizer and penetration enhancer (2-hydroxypropyl)-β-cyclodextrin (HP-β-CD), PEG-400, and water.
They were given a commercial mice chow and water ad libitum. The experiments started after acclimation for at least 1 week. Dosing solutions were made fresh. Fasted mice were administered the test drug by oral (PO), intranasal (IN), and intravenous (IV) routes. […] […] […] Blood was collected into K2EDTA microtubes, kept on ice all the time and centrifuged within 30 min of collection. Blood samples in EDTA vacuum tubes were centrifuged at 4 °C at 15,000× g for 4 min; ~250 µL of plasma was collected into polyethylene tubes containing 50 µL of the ascorbic acid (AA)/TCEP stabilizing solution (20 mM AA and 13 mM TCEP in 50 mM K2HPO4 buffer. The pH of the solution was adjusted to 6.5 using 2 M NaOH). After collection, the plasma samples were immediately snap-frozen in isopropanol/carbon-dioxide dry ice and stored at −80 °C until analysis.
Test catechin was extracted from the above-collected plasma through 3 successive additions of 350 µL of acetonitrile. The plasma and solvent mixture were vortex-mixed for 2 min then snap-frozen with isopropanol/carbon-dioxide dry ice and the extraction solvent was removed. The solvent fractions were pooled into a polyethylene tube kept on ice. The combined fractions were evaporated under a gentle stream of nitrogen at ambient temperature. The residue obtained after evaporation was reconstituted in 200 µL of 75 mM citric acid/25 mM ammonium acetate: acetonitrile (75:25, by vol), vortexed vigorously for 5 min, and 20 µL of the resulting solution was injected into the HPLC column. Lung tissue was collected and treated immediately to avoid product degradation. Within 5 min of extraction, about ~0.4 g of the tissue was homogenized with 1 mL of ice-cold 0.4 M sodium phosphate buffer containing 6 mg of ascorbic acid and 0.5 mg of Na2EDTA (final pH of 6.5). After centrifugation at 4 °C at 15,000× g for 4 min, the supernatant was collected into polyethylene tubes containing 50 µL of the AA/TCEP stabilizing solution (20 mM AA and 13 mM TCEP in 50 mM K2HPO4 buffer. The pH of the solution was adjusted to 6.5 using 2 M NaOH), immediately snap-frozen in isopropanol/carbon-dioxide dry ice and stored at −80 °C until analysis. Extraction was performed as described above for plasma.

PIM3 = PIM3 (Homo sapiens, UniProt Q86V86); experiment: PIM3 kinase inhibition; assay type: biochemical
Description: Table 1 Best DYRK1A inhibitors. | column: PIM3 IC50

PIM1 = PIM1 (Homo sapiens, UniProt P11309); experiment: PIM1 kinase inhibition; assay type: biochemical
DYRK1A = DYRK1A (Homo sapiens, UniProt Q13627); experiment: DYRK1A kinase inhibition; assay type: biochemical
[5] = intranasal 50 mg/kg QD, from day 7 post-BLM
[6] = oral 100 mg/kg QD, from day 7 post-BLM
[7] = tissues from Group 4, vs BLM group
[8] = vs BLM group, 60 mg/kg QD intranasal
[9] = vs BLM group, 60 mg/kg QD intranasal, p < 0.05
[10] = C57BL/6, inhaled or intranasal, mouse, IN (60 mg/kg), lung
[11] = oral 100 mg/kg once daily, from day 7 post-BLM
[12] = C57BL/6, mouse, IV (10 mg/kg), plasma

Chain of PIM1 (P11309 whole entry, species assumed): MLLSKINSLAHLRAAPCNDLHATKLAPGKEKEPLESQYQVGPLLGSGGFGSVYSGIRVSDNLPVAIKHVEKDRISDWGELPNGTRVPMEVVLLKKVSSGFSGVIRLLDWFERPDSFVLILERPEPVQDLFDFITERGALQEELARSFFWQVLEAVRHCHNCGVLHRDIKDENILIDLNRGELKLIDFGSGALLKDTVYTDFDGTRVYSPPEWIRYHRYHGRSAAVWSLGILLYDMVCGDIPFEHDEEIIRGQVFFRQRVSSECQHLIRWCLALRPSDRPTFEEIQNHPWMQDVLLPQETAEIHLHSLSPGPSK
Chain of PIM2 (Q9P1W9 whole entry, species assumed): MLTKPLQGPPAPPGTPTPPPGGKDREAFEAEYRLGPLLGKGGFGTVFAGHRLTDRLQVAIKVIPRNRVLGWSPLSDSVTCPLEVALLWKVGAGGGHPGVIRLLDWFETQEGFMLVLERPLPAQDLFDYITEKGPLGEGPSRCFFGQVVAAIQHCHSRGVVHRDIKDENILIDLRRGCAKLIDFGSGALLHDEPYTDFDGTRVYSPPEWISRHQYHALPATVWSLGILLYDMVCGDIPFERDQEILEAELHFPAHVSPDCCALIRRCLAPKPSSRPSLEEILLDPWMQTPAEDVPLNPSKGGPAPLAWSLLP

For `COc1cc(C(=O)O[C@@H]2Cc3c(O)cc(O)cc3O[C@H]2c2cc(O)c(O)c(O)c2)c(F)c(O)c1O` [ABI-171], the Tlast ([1]; IN (60 mg/kg)) is given as 24 h, the “CL(IV)” value ([1]; IV (5 mg/kg)) is given as 60 mL/min/kg and the “Vz(IV)” value ([1]; IV (5 mg/kg)) is given as 17 L/kg. The “CL/F (PO)” value ([1]; PO (100 mg/kg)) was 101 mL/min/kg, the “F (absolute oral bioavailability, PO/IV)” value ([1]; PO (100 mg/kg)) was 16% and the Tlast ([1]; PO (100 mg/kg)) was 24 h. For the same molecule, the “Vz/F (PO)” value ([1]; PO (100 mg/kg)) was 15.6 L/kg, the “BLM-induced lung collagen level” value ([2]; day 21 of treatment) was “significant reductions” and the “BLM-induced lung fibronectin level” value ([2]; day 21 of treatment) was “significant reductions”. The body weight [2, 5] was “good recovery in body weight”, the survival [2, 5] was “complete survival” and the “BLM-induced lung injuries, Masson's and H&E scores” value ([2]; intranasal 10 and 50 mg/kg, oral 100 mg/kg QD) was “improvements”. For the same molecule, the body weight [2, 6] was “good recovery in body weight”, the survival [2, 6] was “complete survival” and the “E-cadherin levels in lung” value ([2]; oral treatment, tissues from Group 4) was “significantly elevated”. For the same molecule, the “PIM1 level in lung” value [2, 7] was “significantly reduced”, the “Smad3 (p-Smad3) levels in lung” value [2, 7] was “significantly reduces” and the “Snail expression in lung” value [2, 7] was “reduce Snail expression”. For the same molecule, the “αSMA level in lung” value [2, 7] was “downregulating”, the IC50 (PIM2) was 255 nM and the body weight [3] was “significant increase in body weight”. The “alveolitis and PF degrees (H&E and Masson staining)” value ([3]; 60 mg/kg QD intranasal) was “decrease in the alveolitis and PF degrees”, the “hydroxyproline content in lung tissues” value [3, 8] was “significantly decreased” and the “lymphocytes (BALF)” value [3, 9] was “significantly reduced”. The “neutrophils (BALF)” value [3, 9] was “significantly reduced”, the AUC(0-inf) [4, 10] was 23200 ng·h/mL and the AUC(0-t) [4, 10] was 23100 ng·h/mL. For the same molecule, the Tmax [4, 10] was 4 h, the half-life [4, 10] was 3.93 h and the Cmax ([4]; C57BL/6, inhaled or intranasal, mouse, IN (60 mg/kg), lung, read-out: Cmax) was 8740 ng/g. The AUC(0-t) ([4]; C57BL/6, mouse, PO (100 mg/kg), lung) was 214 ng·h/mL, the Cmax ([4]; C57BL/6, mouse, PO (100 mg/kg), lung, read-out: Cmax) was 231 ng/g and the Cmax ([4]; IN route (60 mg/kg), total not unbound drug, read-out: theoretical cellular concentration in the lungs at Cmax) was roughly 17.8 µM. The Tlast ([4]; mouse, IN (60 mg/kg), lung) was 24 h, the Tlast ([4]; mouse, PO (100 mg/kg), lung) was 24 h and the IC50 (PIM3) was 813 nM. It also gave an IC50 (PIM1) of 87 nM and an IC50 (DYRK1A; read-out: DYRK1A IC50) of 73 nM.
In the case of `Cc1ccc(=O)n(-c2ccccc2)c1` [pirfenidone, Pirfenidone, reference compound], the body weight [3] is reported as “significant increase in body weight”.
For `O=C(O[C@@H]1Cc2c(O)cc(O)cc2O[C@H]1c1cc(O)c(O)c(O)c1)c1c(F)c(O)c(O)c(O)c1F` [ABI-154], the Tlast ([1]; PO (100 mg/kg)) is given as 24 h, the IC50 (PIM2) is given as 1080 nM and the body weight [3] is given as “no body weight gain effect”. For the same molecule, the “alveolitis and PF degrees (H&E and Masson staining)” value ([3]; 60 mg/kg QD intranasal) was “decrease in the alveolitis and PF degrees”, the “hydroxyproline content in lung tissues” value [3, 8] was “significantly decreased” and the IC50 (PIM3) was 6000 nM. For the same molecule, the IC50 (PIM1) was 722 nM and the IC50 (DYRK1A; read-out: DYRK1A IC50) was 28 nM.
For `O=C(O[C@@H]1Cc2c(O)cc(O)cc2O[C@@H]1c1cc(O)c(O)c(O)c1)c1cc(O)c(O)c(O)c1` [EGCG, Epigallocatechin gallate, reference compound], the “activity in various assessments” value [2, 11] was “limited to moderate activity”, the mortality [2, 11] was 50% and the bioavailability ([4]; C57BL/6, mouse, lung, po, 100 mg/kg, read-out: F (absolute oral bioavailability, PO/IV)) was 2%. The Vd/F ([4]; C57BL/6, mouse, lung, po, 100 mg/kg, read-out: Vz/F (PO)) was 2680 L/kg, the AUC(0-inf) [4, 12] was 1830 ng·h/mL and the AUC(0-t) [4, 12] was 1800 ng·h/mL. For the same molecule, the half-life [4, 12] was 5.7 h, the Cmax ([4]; C57BL/6, mouse, IV (10 mg/kg), plasma, read-out: Cmax) was 4420 ng/mL and the Vd ([4]; C57BL/6, mouse, IV (10 mg/kg), plasma, read-out: Vz(IV)) was 45.2 L/kg. For the same molecule, the T1/2 ([4]; EGCG column, PO (100 mg/kg), head prints Lung) was 5 h, the IC50 (PIM1) was 1360 nM and the IC50 (DYRK1A) was 235 nM.
